Key:
[1] = tested on: human non-small cell lung cancer cell line (PC9); test: Anti-tumor effect on subcutaneous transplant model of PC9; assay type: in vivo, nude mouse; details: PC9 subcutaneous transplant, 50, 100 or 200 mg/kg orally twice a day for 14 days
Protocol: (§1) Human non-small-cell lung cancer cell line PC9 (obtained from Immuno-Biological laboratories Co., Ltd.), human non-small-cell lung cancer cell line A549 (obtained from Dainippon Pharmaceutical), human colon cancer cell line WiDr (obtained from Dainippon Pharmaceutical) and human colon cancer cell line HCT116 (obtained from ATCC) were cultured in RPMI1640 (containing 10% FBS) in a 5% carbon dioxide incubator at 37° C. to about 80% confluence, and the cells were collected with trypsin-EDTA. Using a phosphate buffer for PC9, WiDr and HCT116 and a 50% matrigel-containing phosphate buffer for A549, 5×10^7 cells/mL suspensions were prepared, respectively. Then, 0.1 mL each of the resulting cell suspensions was subcutaneously transplanted to the side of a nude mouse.
(§2) For PC9, 8 days after the transplantation, E7820 was orally administered for 50 mg/kg, 100 mg/kg or 200 mg/kg twice a day for 14 days. For A549, 24 days after the transplantation, E7820 was orally administered for 50 mg/kg or 200 mg/kg twice a day for 7 days. For WiDr, 11 days after the transplantation, E7820 was orally administered for 50 mg/kg, 100 mg/kg or 200 mg/kg twice a day for 14 days. […]
(§3) The major and minor axes of tumors were measured with Digimatic caliper (Mitsutoyo), and tumor volumes and relative tumor volumes were calculated according to the following formulae. […]

[2] = tested on: human colon cancer cell line (WiDr); test: Anti-tumor effect on subcutaneous transplant model of WiDr; assay type: in vivo, nude mouse; details: WiDr subcutaneous transplant, 50, 100 or 200 mg/kg orally twice a day for 14 days
Protocol: as §1, §2, §3

EGFR1 [3] = test: EGFR1 expression level in cultured PC9 (flow cytometry); assay type: cell-based, human; details: for EGFR1 expression level (% of control) PC9: two days of culture
Protocol: PC9 or A549 was suspended in RPMI1640 (containing 10% FBS) to 1×10^5 cells/ml. Then, 1 ml each of these suspensions was placed into each well of a 6-well plate and cultured in a 5% carbon dioxide incubator at 37° C. On the following day, 1 ml each of E7820 culture dilutions at respective concentrations (0-20 μM) was added to the cells in each well for further culture. After two days of culture, the cells were collected with trypsin-EDTA according to a routine procedure, which were suspended in PBS containing 0.5% BSA. Subsequently, an anti-EGFR1 antibody (BD Biosciences) was added to these suspensions and incubated at 4° C. for 30 minutes. Centrifugation and washing with PBS were carried out according to routine procedures to remove an excessive amount of the antibody. Then, an RPE-labeled anti-mouse IgG antibody was added to these suspensions and incubated at 4° C. for 30 minutes. Centrifugation and washing with PBS were carried out according to routine procedures to remove an excessive amount of the antibody. Finally, the EGFR1 expression level in PC9 and A549 were determined with FACSCalibur (Japan Becton, Dickinson and Company).

EGFR1 [4] = test: EGFR1 expression level in PC9 subcutaneous transplant model (immunohistochemical staining); assay type: in vivo; details: PC9 tumors in nude mice, 25, 50, 100 or 200 mg/kg orally twice a day for 7 days, versus unadministered group
Protocol: PC9 was cultured in RPMI1640 (containing 10% FBS) in a 5% carbon dioxide incubator at 37° C. The cultured human tumor cells (PC9) (8×10^6 cells/mouse) were subcutaneously transplanted into nude mice (KSN mice from SLC). Once proliferation of the tumors transplanted into the mice was observed, E7820 was orally administered to the mice for 0 mg/kg (unadministered), 25 mg/kg, 50 mg/kg, 100 mg/kg or 200 mg/kg twice a day for 7 days. Following 7 days of administration, tumor tissues were removed from the mice, fixed with formalin and embedded in paraffin. Subsequently, the paraffin-embedded tumor tissues were sliced into a thickness of 6 μm, placed on glass slides and deparaffinized with xylene/ethanol. Then, these sections were treated with […] (Roche), and subjected to immunostaining according to the protocol of Simple Stain kit: mouse MAX-PO (M) (NICHIREI) using an anti-EGFR antibody (DakoCytomation). Referring to FIG. 5, (a) to (f) show stain with control IgG (negative control), E7820-unadministered group, E7820-administered group (25 mg/kg), E7820-administered group (50 mg/kg), E7820-administered group (100 mg/kg) and E7820-administered group (200 mg/kg), respectively. Each panel was enlarged twenty times. […] This proves that E7820 also exerts an anti-tumor effect at tissue level by decreasing the EGFR1 expression level. […]

For `Cc1ccc(NS(=O)(=O)c2cccc(C#N)c2)c2[nH]cc(C#N)c12` [E7820, N-(3-cyano-4-methyl-1H-indole-7-yl)-3-cyanobenzenesulfonamide], the “Anti-tumor effect (relative tumor volume)” value [1] was “stronger anti-tumor effects”, the “Anti-tumor effect (relative tumor volume)” value [2] was “showed anti-tumor effects” and the “EGFR1 expression level (% of control) PC9” value (EGFR1 [3]; PC9, E7820 0.01 μM) was 95 % of control. For the same molecule, the “EGFR1 expression level (% of control) PC9” value (EGFR1 [3]; PC9, E7820 0.03 μM) was 91 % of control, the “EGFR1 expression level (% of control) PC9” value (EGFR1 [3]; PC9, E7820 0.1 μM) was 80 % of control and the “EGFR1 expression level (% of control) PC9” value (EGFR1 [3]; PC9, E7820 0.3 μM) was 65 % of control. The “EGFR1 expression level (% of control) PC9” value (EGFR1 [3]; PC9, E7820 1 μM) was 49 % of control, the “EGFR1 expression level (% of control) PC9” value (EGFR1 [3]; PC9, E7820 3 μM) was 44 % of control and the “EGFR1 expression level (% of control) PC9” value (EGFR1 [3]; PC9, E7820 10 μM) was 37 % of control. For the same molecule, the “Effect on EGFR1 expression level (in words)” value (EGFR1 [3]; cultured PC9, dose-dependent) was “greatly decreased the EGFR1 expression level” and the “Effect on EGFR1 expression level (immunohistochemical staining, in words)” value (EGFR1 [4]) was “decrease in the EGFR1 expression level was significant”.
